Tests used:
[1] = tested on: Dermatomed porcine ear skin; format: in vitro ADME; details: 1 % w/v in HEPES buffer (pH 7.15) containing 25 mM sodium chloride
Protocol: Untreated porcine ears were procured from a local slaughter house. Dorsal side of the porcine ears was used for the study.. For study #4, dermatomed porcine skin was prepared by dermatoming full thickness skin using Dermatome 75 mm (Nouvag AG TCM 3000, Goldach, Switzerland).
Dermatome is a surgical instrument used to produce thin slices of skin. Dermatoming is refering to the procedure to produce thin layers of the skin by using such device.
In vitro permeation study was performed using Franz diffusion cells (PermeGear V6 station vertical cell). These models contain 6 diffusion cells in each console with 5 ml receptor volume and 9 mm orifice. The diffusion area was 0.64 cm^2.
After washing the cells, receptor solution was left overnight and replaced with fresh sodium chloride solution (0.9 % w/v), 30 minutes prior to mounting the skin. The receptor chamber temperature was maintained at 37°C by the built-in water circulation jacket so as to attain the skin temperature of 32°C.
Skin pieces were then mounted between the donor and receptor compartment (containing 0.9 % (w/v) sodium chloride solution) of Franz diffusion cells with the stratum corneum facing towards the donor side.
The formulation (160 mg formulation containing 1.6 mg active/0.64 sq.cm) was applied in the donor chamber using a positive displacement pipette (Rainin PosD). Simplex formulation was applied in the donor chamber. The donor compartment was left open to mimic in vivo conditions. Six replicates (with the exception of preliminary study 4) were performed for each formulation for each test group (iontophoresis and corresponding passive control - "no current" group) as specified in Table 1 as follows. In the Table 1, the "active agent" is N-acetyl-3-trifluoromethyl-phenyl-(valine-glycine).
Current (0.2 mA/sq.) was applied using silver/silver chloride electrode system and a constant current source (Keithley®; Keithley Instruments, Cleveland, OH, USA). […] Current application was monitored with a chronometer. […]
Receptor samples were taken after stopping the current for the defined duration, which was 20 min in all the studies except study #4, in which sampling was performed at 5, 10, 20, 60, 120, and 240 min. […] The receptor samples were filtered and quantified with methanol calibration using LCMS.
All samples were analyzed by a validated LCMS method which was performed on an Agilent 6410 Triple Quad System to determine how much of the cosmetic agent passed into and through the skin.
Results of the studies were plotted as average amount of active permeated in receptor, quantity of the active in tape strips, and underlying skin for each test group (passive or iontophoresis treatment group). […]

pKa of the active agent = format: physicochemical

## CC(=O)N(c1cccc(C(F)(F)F)c1)C(C(=O)NCC(=O)O)C(C)C (centres unmarked) [active agent, N-acetyl-3-trifluoromethyl-phenyl-(valine-glycine)]
[1]; anodal iontophoresis 0.2 mA/sq.cm compared with passive and cathodal iontophoresis, p<0.05
  average cumulative amount of active delivered after 20 min: significantly higher
[1]; anodal iontophoresis 0.2 mA/sq.cm for 2 h compared with passive and cathodal iontophoresis, p<0.05
  permeation of the active agent through dermatomed porcine skin over 4 h study duration: significantly enhance
[1]; cathodal iontophoresis 0.2 mA/sq.cm compared with passive, p>0.05
  cumulative active permeation after 20 min: no significant difference
[1]; cathodal iontophoresis 0.2 mA/sq.cm for 2 h compared with passive, p>0.05
  cumulative active permeation after 4 h: no significant difference
pKa of the active agent
  pKa: 3.3
